How the values were obtained:
[1] = Inhibition of prostaglandin synthesis in bovine seminal vesicle microsomes using [14C]arachidonic acid; format: functional, Bos taurus, Microsome
Neutrophil = assay: Inhibition of PAF-induced exocytosis in neutrophil by spectrophotometer; format: functional, cell-based

IC50 [1] [µg/mL] | IC50 ([1]; read-out: IC50) [µM] | IC50 (Neutrophil) [µM] | Compound
200 |  |  | CC(=O)Oc1ccccc1C(=O)O [ASPIRIN]
 | 9.2 | 49 | O=C1C[C@H](c2ccc(O)c(O)c2)Oc2c1c(O)cc1c2[C@@H]2C[C@@](c3ccc(O)c(O)c3)(Oc3cc(O[C@@H]4O[C@H](CO)[C@@H](O)[C@H](O)[C@H]4O)cc(O)c32)O1 [DIINSININOL]
 | 13.1 | 39 | O=C1C[C@H](c2ccc(O)cc2)Oc2c1c(O)cc1c2[C@@H]2C[C@@](c3ccc(O)c(O)c3)(Oc3cc(O[C@@H]4O[C@H](CO)[C@@H](O)[C@H](O)[C@H]4O)cc(O)c32)O1 [DIINSININ]
 |  | 80 | C[C@@H]1C(=O)O[C@H]2[C@H](O)[C@@]34[C@H]5C[C@@H](C(C)(C)C)[C@]36[C@@H](OC(=O)[C@@H]6O)O[C@@]4(C(=O)O5)[C@@]12O [GINKOLIDE B]
 | 0.56 |  | COc1ccc2c(c1)c(CC(=O)O)c(C)n2C(=O)c1ccc(Cl)cc1 [INDOMETHACIN]

Source: ChEMBL document CHEMBL1158275, “Isolation of two new antiinflammatory biflavanoids from Sarcophyte piriei” (J Nat Prod, 1996)
